The results in this text go back to patent publication US10947239B2, “[1,2,4]triazolo[1,5-a]pyrimidin-7-yl compound” (Janssen Pharmaceutica NV, priority 2015, dated 2021).

For data set [1], the system named is dentate gyrus of anesthetized adult Sprague Dawley. In words: LTP / synaptic plasticity in dentate gyrus of anesthetized rats. The data set is classed as in vivo, rat.
For data set [2], the target named is Human recombinant PDE3A (hPDE3A) (Homo sapiens, UniProt Q14432). In words: In vitro assay PDE3A (SPA, 3H-cAMP). It counts as biochemical. As to conditions: −log IC50 expressed in mol/L; method describes hPDE3A. The method, then:
Human recombinant PDE3A (hPDE3A) was supplied as a partially purified insect cell lysate by Scottish Biomedical, it was cloned from human brain and expressed in Sf9 cells. Tested compounds were dissolved and diluted in 100% DMSO to a concentration 100 fold of the final concentration in the assay. Compound dilutions (0.4 μl) were added in 384 well plates to 20 μl of incubation buffer (50 mM Tris pH 7.8, 8.3 mM MgCl2, 1.7 mM EGTA). 10 μl of hPDE3A enzyme in incubation buffer was added and the reaction was started by addition of 10 μl substrate to a final concentration of 0.4 μM cAMP and 2.4 μCi/ml [^3H]-cAMP. The reaction was incubated for 60 min at room temperature. After incubation, the reaction was stopped with 20 μl of stop solution consisting of 17.8 mg/ml PDE SPA (scintillation proximity assay) beads supplemented with 200 mM ZnCl2. After sedimentation of the beads during 30 min the radioactivity was measured in a Perkin Elmer Topcount scintillation counter and results were expressed as cpm. For blanc values the enzyme was omitted from the reaction and replaced by incubation buffer. Control values were obtained by addition of a final concentration of 1% DMSO instead of compound. […]

Data set [3] deals with Human recombinant PDE2A (hPDE2A) (Homo sapiens (Human), UniProt O00408). In words: In vitro assay PDE2A (SPA, 3H-cGMP). The data set is classed as biochemical. On the procedure: Human recombinant PDE2A (hPDE2A) was expressed in Sf9 cells using a recombinant […] baculovirus construct. […] Tested compounds were dissolved and diluted in 100% DMSO to a concentration 100 fold of the final concentration in the assay. Compound dilutions (0.4 μl) were added in 384 well plates to 20 μl of incubation buffer (50 mM Tris pH 7.8, 8.3 mM MgCl2, 1.7 mM EGTA). […] of hPDE2A enzyme in incubation buffer was added and the reaction was started by addition of 10 μl substrate to a final concentration of 10 μM cGMP and 0.01 μCi ^3H-cGMP. The reaction was incubated for 45 minutes at room temperature. […] After sedimentation of the beads during 30 minutes the radioactivity was measured in a Perkin Elmer Topcount scintillation counter and results were expressed as cpm. For blanc values the enzyme was omitted from the reaction and replaced by incubation buffer. Control values were obtained by addition of a final concentration of 1% DMSO instead of compound.
Human recombinant PDE2A (hPDE2A), sequence (O00408 whole entry): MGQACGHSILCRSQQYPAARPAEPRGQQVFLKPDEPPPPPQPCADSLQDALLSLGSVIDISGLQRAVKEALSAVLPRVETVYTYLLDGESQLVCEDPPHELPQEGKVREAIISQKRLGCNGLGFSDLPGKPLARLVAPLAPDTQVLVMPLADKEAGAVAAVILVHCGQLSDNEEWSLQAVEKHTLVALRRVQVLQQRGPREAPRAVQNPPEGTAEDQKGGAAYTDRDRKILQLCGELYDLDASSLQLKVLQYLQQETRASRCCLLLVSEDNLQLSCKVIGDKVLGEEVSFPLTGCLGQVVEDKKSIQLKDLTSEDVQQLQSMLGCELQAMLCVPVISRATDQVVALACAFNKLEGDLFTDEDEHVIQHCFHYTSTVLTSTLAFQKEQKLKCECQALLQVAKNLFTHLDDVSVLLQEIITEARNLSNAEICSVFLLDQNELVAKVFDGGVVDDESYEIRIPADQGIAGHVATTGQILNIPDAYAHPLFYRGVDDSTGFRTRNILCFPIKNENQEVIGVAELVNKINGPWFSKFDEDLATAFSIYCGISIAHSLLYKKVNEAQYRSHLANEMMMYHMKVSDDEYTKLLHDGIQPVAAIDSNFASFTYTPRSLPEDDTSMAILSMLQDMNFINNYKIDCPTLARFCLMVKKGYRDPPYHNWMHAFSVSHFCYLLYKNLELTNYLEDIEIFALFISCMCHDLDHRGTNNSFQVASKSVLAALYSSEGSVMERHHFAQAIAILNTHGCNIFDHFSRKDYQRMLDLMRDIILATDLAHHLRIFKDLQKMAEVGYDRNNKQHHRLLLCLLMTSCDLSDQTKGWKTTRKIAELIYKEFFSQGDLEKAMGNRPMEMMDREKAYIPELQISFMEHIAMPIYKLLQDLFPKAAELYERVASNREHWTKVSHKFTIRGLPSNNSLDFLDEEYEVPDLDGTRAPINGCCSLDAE

Another data set relates to Marshall Beagle dogs. In words: Single dose PK/PD PDE2i dog study. The data set is classed as in vivo. From the text:
For these studies male and female Marshall Beagle dogs (1-6 y) were used: 2 males and 2 females per treatment group. Cerebrospinal fluid (CSF) was sampled from the lateral ventricle via a needle guide cannula in instrumented conscious animals.
Baseline CSF and blood samples were taken 2 to 5 days before dosing. The dogs are fasted overnight and the next morning dosed on an empty stomach (orally by gavage). At predetermined time points after dosing blood and/or CSF was collected for the measurement of compound levels and cGMP. Analysis of cGMP was done by LCMS/MS: 25 μl CSF was diluted with 125 μl artificial CSF (STIL (20 ng/ml)), centrifugated and 25 μl was injected. The systems used were: a Shimadzu SIL-30 UPLC-system (Hypercarb (50 mm×1 mm (3 μm)) column, basic (10 mM ammonium carbonate) aqueous-acetonitrile gradient (5% to 98% in 5.5 minutes) at a flow-rate of 250 μl/min) and an API Sciex 5500 system equiped with an ESI source (selective MRM transition (m/z 346.1→152.1 (75 msec dwelltime)). The results of this study are summarized in FIG. 7. After a single dose of compound 1 the following observations were made: slight to moderate tremors in 3/8 animals at 0.5 mg/kg; sedation and/or tremors in 6 out of 7 animals at 1 mg/kg (one animal was not dosed due to limited stock of the compound). […] Limited individual data in the vehicle group of PDE2 H-2 (n=2 at 1, 4 and 8 h) due to analytical errors.

Data set [4] concerns the target Rat recombinant PDE10A (rPDE10A2) (Rattus norvegicus (Rat), UniProt Q9QYJ6). In words: In vitro assay PDE10A (SPA, 3H-cAMP). The data set is classed as biochemical. As to conditions: −log IC50 expressed in mol/L. On the procedure: Rat recombinant PDE10A (rPDE10A2) was expressed in Sf9) cells using a recombinant rPDE10A baculovirus construct. Cells were harvested after 48 h of infection and the rPDE10A protein was purified by metal chelate chromatography on Ni-sepharose 6FF. Tested compounds were dissolved and diluted in 100% DMSO to a concentration 100 fold of the final concentration in the assay. Compound dilutions (0.4 μl) were added in 384 well plates to 20 μl of incubation buffer (50 mM Tris pH 7.8, 8.3 mM MgCl2, 1.7 mM EGTA). 10 μl of rPDE10A enzyme in incubation buffer was added and the reaction was started by addition of 10 μl substrate to a final concentration of 60 nM cAMP and 0.008 μCi ^3H-cAMP. The reaction was incubated for 60 minutes at room temperature. After incubation, the reaction was stopped with 20 μl of stop solution consisting of 17.8 mg/ml PDE SPA (scintillation proximity assay) beads. After sedimentation of the beads during 30 minutes the radioactivity was measured in a Perkin Elmer Topcount scintillation counter and results were expressed as cpm. For blanc values the enzyme was omitted from the reaction and replaced by incubation buffer. Control values were obtained by addition of a final concentration of 1% DMSO instead of compound. […]

Setting [5] is: 40 mg/kg SC, 90-120 min post-tetanization, relative to baseline 100%.

Some results are limits rather than exact numbers.

Human recombinant PDE3A (hPDE3A), sequence (Q14432 whole entry, looked up): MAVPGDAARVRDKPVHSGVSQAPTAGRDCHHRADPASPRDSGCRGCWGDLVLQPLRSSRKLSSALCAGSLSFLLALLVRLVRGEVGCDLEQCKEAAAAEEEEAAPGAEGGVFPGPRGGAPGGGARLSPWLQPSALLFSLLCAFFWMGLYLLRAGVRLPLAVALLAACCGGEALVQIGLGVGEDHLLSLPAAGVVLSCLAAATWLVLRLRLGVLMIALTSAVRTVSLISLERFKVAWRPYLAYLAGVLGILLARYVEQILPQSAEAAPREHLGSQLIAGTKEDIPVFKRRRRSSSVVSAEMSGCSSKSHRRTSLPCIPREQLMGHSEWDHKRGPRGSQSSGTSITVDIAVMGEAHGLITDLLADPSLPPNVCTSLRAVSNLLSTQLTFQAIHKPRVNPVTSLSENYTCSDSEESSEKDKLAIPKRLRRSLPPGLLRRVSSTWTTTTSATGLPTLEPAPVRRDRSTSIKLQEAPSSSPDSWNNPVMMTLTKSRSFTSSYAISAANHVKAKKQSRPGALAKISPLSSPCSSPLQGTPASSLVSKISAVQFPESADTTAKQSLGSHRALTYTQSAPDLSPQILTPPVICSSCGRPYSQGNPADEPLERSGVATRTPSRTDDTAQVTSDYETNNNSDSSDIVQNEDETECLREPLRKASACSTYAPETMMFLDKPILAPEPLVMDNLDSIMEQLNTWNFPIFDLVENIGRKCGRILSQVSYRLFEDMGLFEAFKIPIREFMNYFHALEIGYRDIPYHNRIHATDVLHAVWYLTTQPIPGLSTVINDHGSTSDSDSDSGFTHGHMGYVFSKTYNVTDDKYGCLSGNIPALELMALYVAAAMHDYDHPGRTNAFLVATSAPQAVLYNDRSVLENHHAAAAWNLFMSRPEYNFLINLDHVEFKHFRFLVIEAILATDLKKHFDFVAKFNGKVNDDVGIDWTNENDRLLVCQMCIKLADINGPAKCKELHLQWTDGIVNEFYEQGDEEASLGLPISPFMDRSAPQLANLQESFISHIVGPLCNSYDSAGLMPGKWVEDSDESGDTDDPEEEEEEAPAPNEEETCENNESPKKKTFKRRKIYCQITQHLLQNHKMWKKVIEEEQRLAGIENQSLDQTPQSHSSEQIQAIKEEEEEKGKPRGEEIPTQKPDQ
Rat recombinant PDE10A (rPDE10A2), sequence (Q9QYJ6 whole entry): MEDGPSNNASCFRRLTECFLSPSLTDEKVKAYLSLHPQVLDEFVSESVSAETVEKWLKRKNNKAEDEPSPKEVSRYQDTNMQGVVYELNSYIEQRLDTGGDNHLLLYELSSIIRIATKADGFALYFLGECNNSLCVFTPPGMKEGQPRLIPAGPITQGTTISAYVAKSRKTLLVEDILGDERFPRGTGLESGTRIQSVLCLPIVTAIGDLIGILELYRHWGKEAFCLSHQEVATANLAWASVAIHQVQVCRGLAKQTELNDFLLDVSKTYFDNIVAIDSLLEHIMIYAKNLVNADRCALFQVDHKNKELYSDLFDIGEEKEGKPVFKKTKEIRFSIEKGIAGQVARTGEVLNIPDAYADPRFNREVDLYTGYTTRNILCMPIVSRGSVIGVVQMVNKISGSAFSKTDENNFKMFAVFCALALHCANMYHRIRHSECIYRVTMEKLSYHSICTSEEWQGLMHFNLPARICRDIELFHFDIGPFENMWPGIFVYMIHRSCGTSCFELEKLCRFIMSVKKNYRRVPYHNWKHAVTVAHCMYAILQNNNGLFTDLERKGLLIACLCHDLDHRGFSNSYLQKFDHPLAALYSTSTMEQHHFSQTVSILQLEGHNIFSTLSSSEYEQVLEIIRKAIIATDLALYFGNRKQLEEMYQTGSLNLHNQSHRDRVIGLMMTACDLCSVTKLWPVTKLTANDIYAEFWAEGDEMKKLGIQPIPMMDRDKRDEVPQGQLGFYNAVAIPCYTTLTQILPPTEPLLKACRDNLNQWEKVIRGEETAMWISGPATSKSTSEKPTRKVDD

In data set [1] (40 mg/kg SC, 0-30 min after tetanization, relative to baseline 100%), `Cc1cc(C(=O)N2CC[C@@H](C)[C@H](c3cc(C(F)F)nc4ncnn34)C2)cc(C)n1` [Compound 1] had a PSA slopes of 164±13%. In data set [1] (setting [5]), this compound had a PSA amplitude of 179±20% and a fEPSP slope of 137±24%. In addition, the “duration of enhanced synaptic potentiation” value in data set [1] (40 mg/kg SC, LTP induction paradigm) is given as > 2 h. For the same compound, the Basal synaptic transmission result in data set [1] (baseline pre-tetanus, versus vehicle-treated control) was “not affected”. In addition, the LTP in vivo entry in data set [1] (overall conclusion) was “facilitates LTP in vivo”. Further, in data set [2], the “pIC50 PDE3B” value is given as 5.21. For the same compound, the IC50 – broadly, the midpoint of a concentration-inhibition curve – in data set [3] (hPDE2A, 10 μM cGMP) came out at 0.95 nM. Also, the “pIC50 (PDE2A)” value in data set [3] (−log IC50 expressed in mol/L) is 9.07. Besides, the “Plasma pharmacokinetics dose linearity” value in the data set on Marshall Beagle dogs (single oral dose) is “non-dose linearity”. Also, the “slight to moderate tremors” value in the data set on Marshall Beagle dogs (single oral dose 0.5 mg/kg) is 3/8. In the data set on Marshall Beagle dogs (single oral dose 1 mg/kg), the sedation and/or tremors is recorded as 6 out of 7. Further, the “cGMP in the CSF” value with Marshall Beagle dogs (single oral dose, CSF from lateral ventricle) is listed as “dose related increase”. Also, in data set [4], the “pIC50 PDE10A2” value amounted to 7.06.
